Measurements reported in patent US10888549B2, “Pharmaceutical agents targeting cancer stem cells” (THE JOHNS HOPKINS UNIVERSITY, priority 2016, dated 2021).

Key:
let-7 = let-7 expression by Q-RT-PCR; format: cell-based, human; settings: parental or spheroid bladder cancer cells
Protocol: Total RNA from cell lines was isolated using the RNeasy Plus Mini kit (Qiagen, Valencia, USA) according to the manufacturer's protocol. Total RNA extraction from bladder tissue was performed with the QIAzol Lysis Reagent (Qiagen) followed by phenol extraction and ethanol precipitation. Total RNA was eluted in DEPC treated water and stored at -80° C. Total RNA extraction from urine was performed using the […] Isolation Kit (Ambion, Austin, USA). These total RNA were converted to cDNA using the SuperScript III First-Strand Synthesis System (Life technologies, Carlsbad, USA), which was then used as a template for Q-RT-PCR. Q-RT-PCR was performed using the Fast SYBR Green Master Mix (Thermo Fisher Scientific, Waltham, USA) on a 7900HT Fast Real-Time PCR System (Life technologies) in triplicate. Micro RNA (miRNA) extraction was performed using the […] Isolation Kit, and was reverse transcribed using TaqMan reverse transcription kit (Applied Biosystems, Foster City, USA) and miRNA-specific RT primers provided with TaqMan microRNA assays (Applied Biosystems). Q-RT-PCR for miRNAs was performed using the TaqMan Universal PCR Master Mix according to the manufacturer's protocol. SDS software (Applied Biosystems) was used to determine cycle threshold (Ct) values. Expression level was quantified relative to β-actin for mRNA and RNU6B for miRNA using the 2-ΔΔCt method (12).

MIRLET7BHG promoter = experiment: Bisulfite sequencing of let-7 host gene promoter; format: cell-based, human; settings: bladder cancer cells
Protocol: Cell pellets were digested with 1% sodium dodecyl sulfate and 50 μg/mL proteinase K (Roche, Nutley, USA) at 48° C. overnight. Isolation of genomic DNA from cell lines was performed with the phenol-chloroform extraction protocol followed by ethanol precipitation. Bisulfite treatment was conducted using an EpiTect Bisulfite Kit (QIAGEN, Valencia, USA), and was subsequently amplified via PCR using primers as shown in the following table. PCR products were purified using the QIAquick Gel Extraction kit (Qiagen), and sequenced by Genewiz DNA sequencing service (Genewiz, South Plainfield, USA). The data were analyzed using the Sequence Scanner v1.0 software (Life technologies). A methylation frequency of ≥50% of total CpG sites within the amplified region was considered “methylation-positive”. For demethylation, cells (1×10^6/T-75 flask) were treated with […] of the demethylating agent 5-Aza-dC (Sigma) dissolved in 50% acetic acid or were mock-treated with phosphate buffered saline (PBS) including the same amount of acetic acid every 24 hours for 5 days. When combined with the histone deacetylase inhibitor TSA (Sigma), 300 nmol/L TSA was added to the medium for the final 24 hours.

SOX2 = SOX2 expression by western blotting / flow cytometry; format: cell-based, human
Protocol: (§1) Whole cell lysates were extracted using RIPA buffer (Thermo Scientific) supplemented with 10 μL/mL Halt™ Protease Inhibitor Cocktail Kit (Life Technologies) and 30 μL/mL Halt™ Phosphatase Inhibitor Cocktail Kit (Life Technologies). The protein concentrations were determined using a Pierce™ BCA Protein Assay Kit (Life Technologies), and the protein were separated on NuPAGE® 4-12% Bis-Tris Gel (Life Technologies) according to the manufacturer's protocol. COX2 (D5H5), NANOG (D73G4), OCT4 (D7O5Z), CD133 (A3G6K), Snail (C15D3), ZEB1 (D80D3), Vimentin (D21H3), CDH2 (D4R1H), CDH1 (24E10), p-EGFR (D7A5), EGFR (D38B1), p-AKT (D9E), AKT (cat #, 9272), p-ERK (D13.14.4E), ERK (137F5), p-YAP1 (D9W2I), p-Src (cat #, 2101), Src (36D10), DNMT1 (D63A6), DNMT3A (D23G1), and DNMT3B (D7O7O) antibodies were obtained from Cell Signaling Technology (Danvers, Mass., USA), except for SOX2 (EPR3131; Abcam, Cambridge, USA), YAP1 (ab52771; Abcam), CD24 (cat #, AF5247-SP; R&D Systems, Minneapolis USA) and β-actin (A2228; Sigma-Aldrich). Secondary horseradish peroxidase (HRP)-conjugated antibodies were obtained from Cell Signaling Technology, and chemiluminescent detection of HRP-labeled antibodies was performed using Amersham ECL Prime Western Blotting Detection Reagent (GE Healthcare, Piscataway, USA). As loading control, β-actin was used.
For extracellular staining, cells (1×10^6/100 μL stain buffer) were incubated with PE-Vio770-conjugated anti-human CD133 (293C3; Miltenyi Biotec, Auburn, USA) or PE-conjugated anti-human CD24 antibody (cat #, 560991; BD Biosciences) for 30 min at 4° C. in dark. PE-Vio770-conjugated Isotype (cat #, 130-098-563; Miltenyi Biotec) and PE-conjugated IgG2a, κ Isotype (cat #, 555574; BD Biosciences) were used as control for CD133 and CD24 staining, respectively. Staining for intracellular SOX2 was carried out using the BD Cytofix/Cytoperm Fixation/Permeabilization Kit (BD Biosciences) according to manufacturer's protocol. The cells were incubated with Alexa Fluor 647-conjugated anti-SOX2 antibody (cat #, 560302; BD Biosciences) for 40 min at 4° C. in dark. Alexa Fluor 647-conjugated anti-IgG2a, κ Isotype (cat #, 558053; BD Biosciences) was used as control. Data were acquired on a BD FACSCalibur flow cytometer (BD Biosciences) using BD CellQuest Pro software (BD Biosciences) and analyzed with FlowJo software v10.1 (Tree Star, Ashland, USA).

urothelial CSCs = experiment: Sphere formation assay (CSC properties); format: cell-based, human; settings: for sphere formation / sphere-forming ability: agent alone, bladder cancer cells
Protocol: Sphere formation was induced by culturing cells (2×10^4/well) in DMEM/Ham's F12 50/50 Mix (Mediatech) supplemented with B-27 (Life Technologies), 20 ng/mL FGF-basic (Peprotech), 20 ng/mL EGF (Peprotech). Cell culture was performed in ultra-low attachment 6 well plates (Corning, Lowell, USA) for 10 days. The medium was replaced every other day. Sphere formation was evaluated using the inverted phase-contrast microscope, and single sphere with a diameter larger than 100 μm was counted using NIS-Elements Microscope Imaging Software. To redifferentiate spheres, spheres were plated in standard growth medium with 10% FBS in dishes supporting cell attachment, and incubated for 7 days. For self-renewal assay, primary spheres were collected by gentle centrifugation (5 min at 400×g), dissociated with Stempro Accutase Cell Dissociation Reagent (Life Technologies), and mechanically disrupted with a pipette. The cell suspension was sieved through 40 μm cell strainer cap filter to achieve a single-cell suspension, and then equal numbers of alive cells were plated in ultralow attachment plates to generate the second spheres. Again, spheres were counted on day 14 and digested to generate the third Spheres. All the experiments were performed in triplicate and repeated at least three times.

panel of miRNAs = experiment: Expression of a panel of miRNAs in BFTC 905 cells; format: cell-based, human
Protocol: Total RNA from cell lines was isolated using the RNeasy Plus Mini kit (Qiagen, Valencia, USA) according to the manufacturer's protocol. Total RNA extraction from bladder tissue was performed with the QIAzol Lysis Reagent (Qiagen) followed by phenol extraction and ethanol precipitation. Total RNA was eluted in DEPC treated water and stored at −80° C. Total RNA extraction from urine was performed using the MirVana miRNA Isolation Kit (Ambion, Austin, USA). These total RNA were converted to cDNA using the SuperScript III First-Strand Synthesis System (Life technologies, Carlsbad, USA), which was then used as a template for Q-RT-PCR. Q-RT-PCR was performed using the Fast SYBR Green Master Mix (Thermo Fisher Scientific, Waltham, USA) on a 7900HT Fast Real-Time PCR System (Life technologies) in triplicate. Micro RNA (miRNA) extraction was performed using the MirVana miRNA Isolation Kit, and was reverse transcribed using TaqMan reverse transcription kit (Applied Biosystems, Foster City, USA) and miRNA-specific RT primers provided with TaqMan microRNA assays (Applied Biosystems). Q-RT-PCR for miRNAs was performed using the TaqMan Universal PCR Master Mix according to the manufacturer's protocol. SDS software (Applied Biosystems) was used to determine cycle threshold (Ct) values. Expression level was quantified relative to β-actin for mRNA and RNU6B for miRNA using the 2-ΔΔCt method (12).

DNMT 1 and 3A = experiment: Western blotting of DNMTs; format: cell-based, human
Protocol: as §1

YAP1 = YAP1 expression by western blotting; format: cell-based, human
Protocol: as §1

COX2 = COX2 expression by western blotting; format: cell-based, human; settings: agent alone; bladder cancer cells
Protocol: Whole cell lysates were extracted using RIPA buffer (Thermo Scientific) supplemented with 10 μL/mL Halt™ Protease Inhibitor Cocktail Kit (Life Technologies) and 30 μL/mL Halt™ Phosphatase Inhibitor Cocktail Kit (Life Technologies). […] Secondary horseradish peroxidase (HRP)-conjugated antibodies were obtained from Cell Signaling Technology, and chemiluminescent detection of HRP-labeled antibodies was performed using Amersham ECL Prime Western Blotting Detection Reagent (GE Healthcare, Piscataway, USA). As loading control, β-actin was used.

[1] = Body weight of treated mice; format: in vivo; settings: mouse, in vivo
Protocol: For celecoxib and/or VP treatment, celecoxib (5 mg/kg) was administered via intraperitoneal (i.p.) injection once a day (17), and VP (50 mg/kg) was administered via i.p. every other day (18). EP4 antagonist ONO-AE3-208 (10 mg/kg) was administered via i.p. once a day (19). Control was applied with same volume (100 μL per injection) of 10% dimethyl sulphoxide in […] (Sigma-Aldrich). For GEM and CDDP (GC) treatment (i.p.), CDDP (6 mg/kg) was only applied after the first GEM (60 mg/kg) treatment on day 2, followed by three consecutive treatments of GEM on day 5, 8 and 11 (17). The next cycle was started on day 18, and the treatment was continued until tumor reached 2 cm in diameter. For erlotinib treatment, the mice were treated once a day, 6 days per week, by oral gavage with erlotinib (100 mg/kg) or control (PBS containing 0.5% methyl cellulose (Sigma-Aldrich) and 0.1% TWEEN 80) (20). Tumor size was measured at least every three days. […] To establish xenograft model with acquired resistance to erlotinib, erlotinib sensitive 5637 cells were injected subcutaneously into the both flanks of 4-5 week-old NSG mice, and the tumors were consecutively passaged from NSG mice treated with erlotinib and celecoxib until the development of refractory tumors. […]

[2] = agent alone, bladder cancer cells
[3] = PGE2 added to celecoxib-treated cells

Nc1ncn([C@H]2C[C@H](O)[C@@H](CO)O2)c(=O)n1 [5-Aza-dC, 5-Aza-2′-deoxycytidine]
let-7 expression (let-7): restoration | promoter methylation of the let-7 host gene (MIRLET7BHG promoter): demethylated

CC(C(=O)Nc1cc(C#N)ccc1CCCC(=O)O)c1ccc(F)c2ccccc12 (centres unmarked) [EP4-specific antagonist, ONO-AE3-208]
SOX2 expression (SOX2; [2]): dramatic reduction | sphere formation / sphere-forming ability (urothelial CSCs): dramatic reduction

CCCCC[C@H](O)/C=C/[C@H]1[C@H](O)CC(=O)[C@@H]1C/C=C\CCCC(=O)O [PGE2, Prostaglandin E2]
SOX2 expression (SOX2; [3]): restored | sphere-forming ability (urothelial CSCs; [3]): restored | let-7 expression (let-7): reduced | promoter methylation of the let-7 host gene (MIRLET7BHG promoter): Promoter methylation of the let-7 host gene was observed | expression of several miRNAs (panel of miRNAs): reduced | DNMT 1 and 3A expression (DNMT 1 and 3A): upregulated

CC(C)(C)n1nc(-c2ccc(Cl)cc2)c2c(N)ncnc21 [Src inhibitor, PP2]
YAP1 expression (YAP1; Src inhibitor added to COX2 inhibitor-treated cells): downregulated

C=Cc1c(C)c2cc3nc(cc4[nH]c(cc5nc(cc1[nH]2)C(C)=C5CCC(=O)O)c(CCC(=O)OC)c4C)[C@@]1(C)C3=CC=C(C(=O)OC)[C@H]1C(=O)OC [VP, 3-[(23S,24R)-14-ethenyl-5-(3-methoxy-3-oxopropyl)-22,23-bis(methoxycarbonyl)-4,10,15,24-tetramethyl-25,26,27,28-tetraazahexacyclo[16.6.1.1^3,6.1^8,11.1^13,16.0^19,24]octacosa-1,3,5,7,9,11(27),12,14,16,18(25),19,21-dodecaen-9-yl]propanoic acid]
SOX2 expression (SOX2; [2]): reduced | COX2 expression (COX2): induced | body weight loss of mice [1]: did not observe body weight loss

N.N.[Cl][Pt][Cl] [cisplatin, Cisplatin]
SOX2 expression (SOX2; [2]): overexpression | COX2 expression (COX2): overexpression | YAP1 expression (YAP1; [2]): overexpression | sphere formation / sphere-forming ability (urothelial CSCs): increased

CCc1cccc2c3c([nH]c12)C(CC)(CC(=O)O)OCC3 (centres unmarked) [etodolac, Etodolac]
SOX2 expression (SOX2; [2]): dramatic reduction | sphere formation / sphere-forming ability (urothelial CSCs): dramatic reduction
